From ChEMBL document CHEMBL5634072, “The recent advance of Interleukin-1 receptor associated kinase 4 inhibitors for the treatment of inflammation and related diseases” (Eur J Med Chem, 2023)

Assays:
[1] = molecular target: T1, Interleukin-1 receptor-associated kinase 4 (Homo sapiens, UniProt Q9NWZ3); assay: Inhibition of IRAK4 (unknown origin)
T1 sequence (Q9NWZ3 whole entry): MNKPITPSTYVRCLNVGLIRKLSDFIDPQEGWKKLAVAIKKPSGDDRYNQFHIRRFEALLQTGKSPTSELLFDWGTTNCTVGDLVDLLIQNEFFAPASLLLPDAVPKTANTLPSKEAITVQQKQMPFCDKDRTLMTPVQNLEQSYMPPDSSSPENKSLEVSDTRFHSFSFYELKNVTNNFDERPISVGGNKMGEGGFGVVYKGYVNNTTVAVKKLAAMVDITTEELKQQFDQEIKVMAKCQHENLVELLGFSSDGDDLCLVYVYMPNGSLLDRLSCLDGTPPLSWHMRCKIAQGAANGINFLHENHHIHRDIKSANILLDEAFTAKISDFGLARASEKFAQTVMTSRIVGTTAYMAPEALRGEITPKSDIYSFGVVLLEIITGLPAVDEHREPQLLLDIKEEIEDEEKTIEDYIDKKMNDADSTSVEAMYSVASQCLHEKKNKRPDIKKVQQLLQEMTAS

[2] = molecular target: Protein cereblon/Interleukin-1 receptor-associated kinase 4 (Homo sapiens, UniProt Q96SW2+Q9NWZ3); assay: Binding affinity to CRBN/IRAK4 in human PBMC cells assessed as inhibition of LPS-stimulated IL-6 production incubated for 24 hrs by MSD analysis; assay type: cell-based
Sequence of Protein cereblon/Interleukin-1 receptor-associated kinase 4 (Q96SW2 whole entry, one chain of several): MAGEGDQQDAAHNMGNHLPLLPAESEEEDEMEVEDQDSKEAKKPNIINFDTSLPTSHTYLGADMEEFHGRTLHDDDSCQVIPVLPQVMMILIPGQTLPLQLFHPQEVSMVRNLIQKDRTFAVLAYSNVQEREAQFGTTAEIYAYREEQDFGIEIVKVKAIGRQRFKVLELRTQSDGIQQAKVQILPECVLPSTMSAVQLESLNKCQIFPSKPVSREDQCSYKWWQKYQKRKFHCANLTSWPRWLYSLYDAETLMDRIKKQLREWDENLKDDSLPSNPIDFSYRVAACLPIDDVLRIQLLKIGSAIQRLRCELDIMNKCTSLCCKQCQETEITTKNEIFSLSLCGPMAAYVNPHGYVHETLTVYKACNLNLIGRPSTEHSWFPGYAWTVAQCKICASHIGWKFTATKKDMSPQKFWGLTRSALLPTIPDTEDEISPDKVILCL

[3] = molecular target: T1, Interleukin-1 receptor-associated kinase 4; assay: Inhibition of IRAK4 (unknown origin) by Ambit kinase assay
[4] = molecular target: T2, Protein cereblon/Interleukin-1 receptor-associated kinase 4 (Homo sapiens) (UniProt Q9NWZ3+Q96SW2); assay: PROTAC activity at CRBN/IRAK4 in human PBMC cells assessed as induction of degradation at 1 uM measured after 24 hrs by Immuno-blotting analysis relative to control; assay type: cell-based
T2 sequence (Q96SW2 whole entry, looked up, one chain of several): as the sequence (Q96SW2 whole entry, one chain of several) above

[5] = molecular target: T2, Protein cereblon/Interleukin-1 receptor-associated kinase 4 (Homo sapiens); assay: PROTAC activity at CRBN/IRAK4 in human PBMC cells assessed as induction of degradation at 0.1 uM measured after 24 hrs by Immuno-blotting analysis relative to control; assay type: cell-based
[6] = molecular target: T2, Protein cereblon/Interleukin-1 receptor-associated kinase 4 (Homo sapiens); assay: PROTAC activity at CRBN/IRAK4 in human PBMC cells assessed as induction of degradation at 0.01 uM measured after 24 hrs by Immuno-blotting analysis relative to control; assay type: cell-based
Cyclic GMP-AMP synthase = Cyclic GMP-AMP synthase (Homo sapiens, UniProt Q8N884); assay: Inhibition of cyclic GMP-AMP synthase (unknown origin)
Sequence of Cyclic GMP-AMP synthase (Q8N884 whole entry): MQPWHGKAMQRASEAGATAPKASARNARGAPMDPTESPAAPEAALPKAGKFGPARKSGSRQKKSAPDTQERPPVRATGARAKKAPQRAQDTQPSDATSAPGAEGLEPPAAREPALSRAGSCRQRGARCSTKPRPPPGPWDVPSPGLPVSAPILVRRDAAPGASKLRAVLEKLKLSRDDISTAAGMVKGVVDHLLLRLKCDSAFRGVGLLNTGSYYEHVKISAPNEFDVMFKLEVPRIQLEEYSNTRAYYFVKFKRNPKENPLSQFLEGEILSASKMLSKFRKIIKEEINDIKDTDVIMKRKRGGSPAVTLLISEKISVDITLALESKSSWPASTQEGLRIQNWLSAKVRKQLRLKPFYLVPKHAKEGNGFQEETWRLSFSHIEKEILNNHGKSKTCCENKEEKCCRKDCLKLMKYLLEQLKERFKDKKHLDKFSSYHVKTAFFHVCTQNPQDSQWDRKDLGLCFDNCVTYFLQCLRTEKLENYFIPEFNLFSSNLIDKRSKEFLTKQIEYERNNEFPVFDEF

[7] = molecular target: T1, Interleukin-1 receptor-associated kinase 4; assay: Inhibition of IRAK4 (unknown origin) by discoverX kinome scan assay
[8] = molecular target: Interleukin-1 receptor-associated kinase 1 (Homo sapiens, UniProt P51617); assay: Inhibition of IRAK1 (unknown origin) by Ambit kinase assay
Sequence of Interleukin-1 receptor-associated kinase 1 (P51617 whole entry): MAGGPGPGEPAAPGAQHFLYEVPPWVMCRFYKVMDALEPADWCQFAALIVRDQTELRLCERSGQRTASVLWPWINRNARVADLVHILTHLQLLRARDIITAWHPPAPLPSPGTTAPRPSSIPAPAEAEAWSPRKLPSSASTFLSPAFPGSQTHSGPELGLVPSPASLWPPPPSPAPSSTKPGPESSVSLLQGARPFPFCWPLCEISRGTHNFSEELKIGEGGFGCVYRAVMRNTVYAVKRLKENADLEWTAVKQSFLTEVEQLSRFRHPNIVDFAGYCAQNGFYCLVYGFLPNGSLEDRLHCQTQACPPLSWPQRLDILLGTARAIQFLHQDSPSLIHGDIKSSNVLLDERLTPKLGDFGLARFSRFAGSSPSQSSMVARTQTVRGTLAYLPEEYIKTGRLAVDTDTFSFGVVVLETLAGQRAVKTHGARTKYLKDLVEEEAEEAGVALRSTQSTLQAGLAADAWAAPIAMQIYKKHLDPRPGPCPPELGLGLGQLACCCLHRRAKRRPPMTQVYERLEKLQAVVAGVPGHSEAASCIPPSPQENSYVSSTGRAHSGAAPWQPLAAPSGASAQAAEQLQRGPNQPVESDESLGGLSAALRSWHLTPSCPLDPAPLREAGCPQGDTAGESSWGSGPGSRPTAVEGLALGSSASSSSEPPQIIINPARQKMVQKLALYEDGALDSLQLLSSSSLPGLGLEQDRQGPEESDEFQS

**Q.** `O=C(Nc1ccc(CN2CCNCC2)c(C(F)(F)F)c1)c1cccc(-c2ccc3nc(NC(=O)C4CC4)sc3n2)c1` was tested. Which IC50 [1] did it give?
**A.** 165 nM

**Q.** With `CCO[C@H]1CC[C@@H](n2cc(NC(=O)c3csc(-c4cn[nH]c4)n3)c(-c3nc(F)ccc3F)n2)CC1` as the compound, how does the EC50 [1] read?
**A.** 195 nM

**Q.** How did the IC50 [2] turn out when `Cn1cc2c(n1)C(=O)NCC1CN(CCO1)C(=O)OCCn1cc(cn1)-c1cccc(n1)C(=O)N2` (centres undefined) was run?
**A.** 100 nM

**Q.** `CC(C)CCNC(=O)c1ccc2c(c1)nc(Nc1n[nH]c3ccc(-c4ccccc4OC(F)(F)F)cc13)n2C1CCC(O)CC1` (centres undefined) was tested. Which IC50 [1] did it give?
**A.** < 10 nM

**Q.** With `CC(C)(O)CCn1cc2cc(NC(=O)c3cccc(C(F)(F)F)n3)c(C3COC3)cc2n1` as the compound, how does the IC50 [3] read?
**A.** 1.6 nM

**Q.** What does the source list for `O=C1CCC(N2C(=O)c3cccc(NCc4cn(CCCNC(=O)c5ccc(-n6cc(NC(=O)c7coc(-c8ccnc(NCC9CC9)c8)n7)c(C(F)(F)F)n6)cc5)cn4)c3C2=O)C(=O)N1` (centres undefined)?
**A.** Activity [4]: > 50%; Activity [5]: > 20%; Activity [6]: < 20%

**Q.** For `Cn1cc2c(n1)C(=O)NCCn1cc(cn1)-c1ccc(=O)n(n1)Cc1cccc(c1)C(=O)N2`, which IC50 [2] is on record?
**A.** < 100 nM

**Q.** Which IC50 [2] does the source give for `O=C1Nc2nc3ccccc3n2Cc2cc(ccn2)-c2ccc(=O)n(n2)Cc2cccc1c2` here?
**A.** < 100 nM

**Q.** `Cc1ccn2c(C(=O)C(=O)c3ccccc3)c(-c3ccccc3)nc2c1` was tested. Which IC50 (Cyclic GMP-AMP synthase) did it give?
**A.** 2.1 nM

**Q.** How did the IC50 [7] turn out when `O=C1Nc2cn(C3CCOCC3)nc2C(=O)NCCOCCCc2cc(ccn2)-c2nc1cs2` was run?
**A.** 1 nM

**Q.** How did the IC50 [8] turn out when `CN(C)[C@H]1CC[C@H](Oc2ncnc3sc4c(c23)[C@@H](CCC#N)CC4)CC1` was run?
**A.** < 5000 nM

**Q.** How did the IC50 [3] turn out when `Cc1cc(-c2nc(C(=O)Nc3cc4cn(CCC(C)(C)O)nc4cc3C(C)(C)O)co2)ccn1` was run?
**A.** 0.55 nM
